Test results published in US20030185956A1, “Separation method” (priority 2000, published 2003).
≈ marks a conversion by molar mass, not a printed value.

Tests used:
[1] = Separation in model membrane reactor, water to n-decane across cellulose acetate dialysis membrane; format: physicochemical; conditions: for recovered into the decane / amount recovered into the decane: Example 5, after 2.5 days; for recovered into the decane: 20 g macerated grapefruit peel (nootkatone 4.3 mg, limonene 135 mg) in 35 ml water; for amount recovered into the decane: grapefruit peel
Procedure: (§1) Separation experiments were carried out in a small model membrane reactor which consisted of an upper and lower chamber separated by 0.002 m^2 of membrane. Thorough mixing was ensured by use of a magnetic stirrer with a separate stirring bar contained within each chamber. Membrane separations were carried out at room temperature (22° C.).
Gas Chromatography (g.c.)
Analysis of valencene, nootkatone, 1,2-epoxyoctane and 1-octene.
Column—SE-30 capillary (Alltech, Carnforth, Lancs, UK), ID 0.32 mm, film thickness 0.25 μm.
Temperature program 200° C. for 5 min. 10° C. min^−1
Injector/detector temperature—300° C.
Carrier gas-helium, head pressure 0.35 bar

physchem = conditions: 25 °C, water
[2] = Selective extraction from water into n-decane in dialysis tubing (shaken flask); format: physicochemical; conditions: Example 6, 30° C., 45 hours; for amount present in the n-decane phase: 100 mg limonene + 20 mg carvone in 100 ml water, 50 ml n-decane, 150 rpm
Procedure: Dialysis tubing (cellulose acetate visking tubing MW cut off 12-14,000 Da) containing 50 ml n-decane was added to the flask and the whole incubated at 30° C. with shaking at 150 rpm for 45 hours.

[3] = Product recovery from fungal culture broth into solvent in dialysis tubing; format: physicochemical; conditions: for recovered into the n-decane: 72 h incubation, nootkatol and nootkatone approx. 3.3 mg combined, valencene approx. 150 mg
Procedure: Product recovery experiments were carried out in fungal or bacterial cultures or in suspensions of fungal or bacterial cells. Reaction media contained: unreacted substrate valencene at 0.3-1.4 mg ml^−1 and the reaction products nootkatol and nootkatone in concentrations ranging from 0.02-0.2 mg ml^−1. Nootkatol and nootkatone differ from the substrate valencene by the presence of only a single hydroxyl or a single keto group respectively. [drawing 1]
Dialysis tubing (as described in Example 1) pre-soaked in deionised water, containing n-hexane (50 ml) was added to each of two separate fungal cultures. On addition of hexane filled tubing, reaction mixtures contained the following:
Culture one contained culture broth and biomass (100 ml), residual valencene (approximately 35 mg) and product nootkatone (2.3 mg). Culture two contained culture broth and biomass (100 ml), residual valencene (approximately 33 mg), product nootkatone (3.8 mg), and Tween 80 (trade mark) (1.3 g).
After 48 h extraction time (30° C., shaking at 160 rpm), 96% of nootkatone had been recovered from culture broth one into n-hexane in the dialysis tubing. The remaining nootkatone was detected in the culture broth. Valencene was not detected in the n-hexane extraction solvent. The efficiency of extraction from culture broth two was 68%. The remaining nootkatone was detected in the culture broth. A trace amount of valencene was detected in the extraction solvent.
Dialysis tubing (details described in Example 7) pre-soaked in deionised water, containing n-decane (50 ml) was added to a fungal culture medium containing: culture broth and biomass (100 ml); residual valencene (approximately 150 mg) and the products nootkatol and nootkatone (approx. 3.3 mg combined weight). After 72 h incubation (conditions described in Example 7) 100% of the nootkatol and nootkatone products had been recovered into the n-decane in the dialysis tubing. Valencene was not detected in the n-decane.

[4] = Separation in model membrane reactor across Supor membrane; format: physicochemical; conditions: Example 3
Procedure: as §1

Row | amount present in the n-decane phase [2] | share of amount originally added to the water phase found in n-decane [2] | recovered into the decane [1] | amount recovered into the decane [1] | SMILES | recovered into the n-decane ([3]; Example 8) | also measured
1 |  |  |  |  | CCCCCCC1CO1 (stereo not shown) [1,2-epoxyoctane] |  | Rate of flux ([1]; not told): 1.45 g h^−1m^−2 for 1,2-epoxyoctane
2 | 8 mg | 40% |  |  | C=C(C)C1CC=C(C)C(=O)C1 (stereo not shown) [carvone] |  | solubility (physchem): ~600 µg/mL (≈ 3.99 mM)
3 | 2.0 mg | 2% | 5% | 4.6 mg | C=C(C)[C@H]1CC=C(C)CC1 [limonene] |  | 
4 |  |  |  |  | C=C(C)[C@@H]1CCC2=CC(O)C[C@@H](C)[C@]2(C)C1 (stereo partly shown) [nootkatol] | 100% | 
5 |  |  | component limonene. After 2.5 days, 28% | 1.2 mg | C=C(C)[C@@H]1CCC2=CC(=O)C[C@@H](C)[C@]2(C)C1 [nootkatone] | 100% | Rate of flux ([1]; Example 1, cellulose acetate, thickness 0.05 mm, M.W. cut-off 12-14,000 Da): 0.08 g nootkatone h^−1m^−2. g h^−1m^−2; Rate of flux [4]: 0.130 g h^−1m^−2 for nootkatone; recovered from culture broth into n-hexane ([3]; Example 7, culture one (no Tween 80), 48 h, 30° C., 160 rpm): 96%; efficiency of extraction into n-hexane ([3]; Example 7, culture two (with Tween 80 1.3 g), 48 h, 30° C., 160 rpm): 68%
6 |  |  |  |  | C=C(C)[C@@H]1CCC2=CCC[C@@H](C)[C@]2(C)C1 [valencene] |  | presence in the n-hexane extraction solvent ([3]; Example 7, culture one): not detected; presence in the extraction solvent ([3]; Example 7, culture two (with Tween 80)): trace amount; presence in the n-decane ([3]; Example 8, 72 h): not detected
